In ChEMBL document CHEMBL1148832, “Rational design, structure, and biological evaluation of cyclic peptides mimicking the vascular endothelial growth factor” (J Med Chem, 2007):
Active and inactive are the calls of the source. The calls are words filed in the database; no cut-off is given here. *1 amine or outer side, *2 acyl side, *3 side chain or, on linkers, in order; H or OH if unused. Where a SMILES comes first, the peptide text is derived from it. Bridges are numbered along the chain shown (N, C = ends). [ ]: non-standard residue; d: D form. X1 = O=C([C@H](Cc1cc(=O)oc2cc(O)ccc12)N[*:1])[*:2]; hPhe = N[C@@H](CCc1ccccc1)C(=O)O; β3hE = N[C@@H](CCC(=O)O)CC(=O)O

Experiments:
HUVEC = assay: Inhibition of VEGF165-induced cell migration in HUVEC at 100 uM after 6 hrs by wound healing assay; assay type: functional, cell-based; settings: Homo sapiens
[1] = target: Vascular endothelial growth factor receptor 1 (Homo sapiens, UniProt P17948); assay: Displacement of biotinylated VEGF165 from human recombinant VEGFR1 by chemiluminescent assay
Sequence of Vascular endothelial growth factor receptor 1 (P17948 whole entry): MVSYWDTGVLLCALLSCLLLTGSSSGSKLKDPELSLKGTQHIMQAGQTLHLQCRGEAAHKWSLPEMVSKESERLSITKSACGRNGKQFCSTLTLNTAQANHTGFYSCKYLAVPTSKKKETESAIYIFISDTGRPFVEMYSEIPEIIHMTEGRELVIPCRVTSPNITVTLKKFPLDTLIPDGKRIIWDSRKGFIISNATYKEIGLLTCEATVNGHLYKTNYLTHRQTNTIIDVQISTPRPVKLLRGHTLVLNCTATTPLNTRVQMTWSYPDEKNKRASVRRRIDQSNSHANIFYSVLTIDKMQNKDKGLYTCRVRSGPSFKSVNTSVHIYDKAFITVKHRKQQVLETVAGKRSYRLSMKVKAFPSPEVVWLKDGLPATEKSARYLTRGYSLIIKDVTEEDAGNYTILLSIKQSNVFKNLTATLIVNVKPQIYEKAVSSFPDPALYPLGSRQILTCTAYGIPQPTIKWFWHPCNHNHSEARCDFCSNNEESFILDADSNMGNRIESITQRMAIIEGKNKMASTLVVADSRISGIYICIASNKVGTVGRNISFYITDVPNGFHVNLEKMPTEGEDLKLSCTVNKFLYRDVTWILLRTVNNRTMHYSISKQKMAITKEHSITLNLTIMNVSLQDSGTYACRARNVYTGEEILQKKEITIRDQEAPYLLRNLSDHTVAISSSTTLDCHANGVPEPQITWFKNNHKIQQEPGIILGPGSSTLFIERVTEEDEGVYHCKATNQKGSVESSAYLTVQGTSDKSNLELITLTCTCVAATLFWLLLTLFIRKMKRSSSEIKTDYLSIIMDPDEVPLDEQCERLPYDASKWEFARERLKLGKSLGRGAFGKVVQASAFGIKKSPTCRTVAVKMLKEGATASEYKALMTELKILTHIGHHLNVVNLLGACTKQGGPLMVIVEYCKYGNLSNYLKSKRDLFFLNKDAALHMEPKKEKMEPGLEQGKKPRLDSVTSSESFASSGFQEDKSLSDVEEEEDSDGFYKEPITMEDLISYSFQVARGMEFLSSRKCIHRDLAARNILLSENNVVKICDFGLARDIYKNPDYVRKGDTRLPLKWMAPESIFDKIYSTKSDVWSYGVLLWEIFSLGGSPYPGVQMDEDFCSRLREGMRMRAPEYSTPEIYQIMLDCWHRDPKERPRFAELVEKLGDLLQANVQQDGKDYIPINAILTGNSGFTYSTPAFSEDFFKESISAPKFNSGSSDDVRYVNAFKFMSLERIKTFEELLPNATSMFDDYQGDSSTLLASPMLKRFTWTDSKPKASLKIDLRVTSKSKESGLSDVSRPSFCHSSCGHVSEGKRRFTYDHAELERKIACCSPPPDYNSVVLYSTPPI

| IC50 [1] [µM] | Compound | Activity (HUVEC) |
| --- | --- | --- |
|  | CC(C)C[C@@H]1NC(=O)CNC(=O)[C@H](CCC(=O)O)NC(=O)[C@H](CC(=O)O)NC(=O)[C@H](Cc2ccc(O)cc2)NC(=O)[C@H](Cc2ccc(O)cc2)NC(=O)CC[C@@H](C(N)=O)NC(=O)[C@H](CCC(=O)O)NC1=O (YYDEGLEE-NH2; lactam N-8) | Active |
| 19.3 | CC(C)C[C@@H]1NC(=O)CNC(=O)[C@H](CCC(=O)O)NC(=O)[C@H](Cc2cc(=O)oc3cc(O)ccc23)NC(=O)[C@H](CCc2ccccc2)NC(=O)CC[C@@H](C(N)=O)NC(=O)[C@H](CCC(=O)O)NC1=O ([hPhe][X1]EGLEE-NH2; lactam N-7) |  |
|  | CC(C)C[C@@H]1NC(=O)CNC(=O)[C@H](CCC(=O)O)NC(=O)[C@H](Cc2cc(=O)oc3cc(O)ccc23)NC(=O)[C@H](CCc2ccccc2)NC(=O)CC[C@@H](CC(N)=O)NC(=O)[C@H](CCC(=O)O)NC1=O ([hPhe][X1]EGLE[β3hE]-NH2; lactam N-7) | Active |
